# US10508120B2, “TYK2 inhibitors and uses thereof” (Nimbus Lakshmi, Inc., priority 2017, dated 2019)
# Like-named read-outs stand apart in the source and are kept apart here.
# Assays:
# [1] = biological target: human TYK2 (JH2domain-pseudokinase) (Homo sapiens (Human), UniProt P29597); assay: TYK2 JH2 Domain Binding Assay (KINOMEscan)
# How it was run: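 The construct was human TYK2 G556–D888 fused to the NFkB DNA-binding domain and expressed in HEK293 cells; unpurified extract was incubated with compound and liganded beads for 1 hour at room temperature.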
# [2] = biological target: Tyk2 kinase domain (DH1) (Homo sapiens (Human), UniProt P29597); assay: Tyk2 Radioactive Kinase Assay; assay type: biochemical; settings: for inhibition at 10 µM: read-out: Tyk2 JH1% Inhibition @ 10 μM
# How it was run: (§1)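 Compounds were tested at a single concentration of 10 μM in a radiometric kinase format against each isolated kinase domain. Activity is reported as percent inhibition at that concentration.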
# [3] = biological target: JAK2 kinase domain (JH1) (Homo sapiens (Human), UniProt O60674); assay: JAK2 Radioactive Kinase Assay; assay type: biochemical; settings: for inhibition at 10 µM: read-out: JAK2 JH1% Inhibition @ 10 μM
# How it was run: as §1
# [4] = biological target: Tyk2/JAK2 (heterodimeric complex) (Homo sapiens (Human), UniProt P29597); assay: IL-12 Induced pSTAT4 in Human PBMC; assay type: cell-based; settings: 1.7 ng/mL IL-12
# From the text: The IL-12 Induced pSTAT4 assay evaluates the inhibition of IL-12 induced STAT4 phophorylation mediated by Tyk2/JAK2 (heterodimeric complex).
# [5] = biological target: JAK2/JAK2 homdimeric complex (Homo sapiens (Human), UniProt O60674); assay: GM-CSF Induced pSTAT5 in Human PBMC; assay type: cell-based; settings: GM-CSF 5 ng/mL for 20 minutes, pSTAT5 by MSD, read-out: PBMC_GMCSF_pSTAT5 IC50
# JAK2/JAK2 homdimeric complex, sequence (O60674 whole entry): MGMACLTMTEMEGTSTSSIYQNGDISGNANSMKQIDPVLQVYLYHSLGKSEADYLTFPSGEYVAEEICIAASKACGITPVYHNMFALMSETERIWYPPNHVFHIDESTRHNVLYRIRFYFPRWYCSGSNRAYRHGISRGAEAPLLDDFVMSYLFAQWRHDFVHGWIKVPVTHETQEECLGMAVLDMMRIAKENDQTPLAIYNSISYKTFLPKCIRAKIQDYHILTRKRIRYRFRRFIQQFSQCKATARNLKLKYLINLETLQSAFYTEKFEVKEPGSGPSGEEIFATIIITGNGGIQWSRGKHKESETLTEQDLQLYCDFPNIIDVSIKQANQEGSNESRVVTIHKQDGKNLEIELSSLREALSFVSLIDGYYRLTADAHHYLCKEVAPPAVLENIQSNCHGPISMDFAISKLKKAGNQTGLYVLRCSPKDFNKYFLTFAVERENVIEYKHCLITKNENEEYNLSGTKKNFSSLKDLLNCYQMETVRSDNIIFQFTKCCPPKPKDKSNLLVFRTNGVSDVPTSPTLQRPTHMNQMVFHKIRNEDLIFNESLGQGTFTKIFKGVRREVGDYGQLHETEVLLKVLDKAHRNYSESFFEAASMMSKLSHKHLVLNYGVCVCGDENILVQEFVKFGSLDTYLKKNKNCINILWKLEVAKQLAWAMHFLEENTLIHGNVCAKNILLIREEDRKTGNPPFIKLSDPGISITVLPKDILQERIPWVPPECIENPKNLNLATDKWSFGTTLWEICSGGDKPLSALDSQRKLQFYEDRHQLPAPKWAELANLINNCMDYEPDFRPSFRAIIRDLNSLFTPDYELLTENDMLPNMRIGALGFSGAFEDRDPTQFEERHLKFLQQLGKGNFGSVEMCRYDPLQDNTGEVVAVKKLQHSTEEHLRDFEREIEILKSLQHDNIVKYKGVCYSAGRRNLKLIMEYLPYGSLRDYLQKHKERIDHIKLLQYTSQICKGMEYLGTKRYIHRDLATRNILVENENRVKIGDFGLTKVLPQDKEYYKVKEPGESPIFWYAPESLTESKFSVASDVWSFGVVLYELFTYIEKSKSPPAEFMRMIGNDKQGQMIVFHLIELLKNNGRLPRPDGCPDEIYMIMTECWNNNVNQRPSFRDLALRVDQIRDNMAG
# JAK2/JAK2 homdimeric complex, sequence (P32927 17-897 partner): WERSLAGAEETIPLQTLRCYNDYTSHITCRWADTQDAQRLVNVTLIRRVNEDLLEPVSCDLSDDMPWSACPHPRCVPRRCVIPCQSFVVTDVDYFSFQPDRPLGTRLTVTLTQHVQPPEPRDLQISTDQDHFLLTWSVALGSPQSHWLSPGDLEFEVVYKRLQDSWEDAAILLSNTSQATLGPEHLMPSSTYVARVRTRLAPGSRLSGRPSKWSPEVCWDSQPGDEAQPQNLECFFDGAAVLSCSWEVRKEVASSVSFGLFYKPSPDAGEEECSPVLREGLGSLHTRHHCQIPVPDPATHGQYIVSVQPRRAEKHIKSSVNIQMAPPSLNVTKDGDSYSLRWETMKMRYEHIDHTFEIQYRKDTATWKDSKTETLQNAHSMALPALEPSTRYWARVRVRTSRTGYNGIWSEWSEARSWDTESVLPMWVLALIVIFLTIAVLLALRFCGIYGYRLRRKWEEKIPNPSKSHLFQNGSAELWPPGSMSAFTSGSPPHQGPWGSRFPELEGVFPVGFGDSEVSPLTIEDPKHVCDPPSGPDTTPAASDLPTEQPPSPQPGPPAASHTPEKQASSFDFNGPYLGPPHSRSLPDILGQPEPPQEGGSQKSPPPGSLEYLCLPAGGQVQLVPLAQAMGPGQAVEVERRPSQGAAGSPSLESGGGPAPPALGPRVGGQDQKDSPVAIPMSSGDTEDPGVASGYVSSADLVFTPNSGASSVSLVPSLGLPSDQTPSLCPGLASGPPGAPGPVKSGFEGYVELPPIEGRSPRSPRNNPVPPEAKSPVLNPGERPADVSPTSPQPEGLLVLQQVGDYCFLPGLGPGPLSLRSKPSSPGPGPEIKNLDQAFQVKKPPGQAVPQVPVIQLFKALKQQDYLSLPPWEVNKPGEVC
# human TYK2 (JH2domain-pseudokinase), sequence (P29597 556-888): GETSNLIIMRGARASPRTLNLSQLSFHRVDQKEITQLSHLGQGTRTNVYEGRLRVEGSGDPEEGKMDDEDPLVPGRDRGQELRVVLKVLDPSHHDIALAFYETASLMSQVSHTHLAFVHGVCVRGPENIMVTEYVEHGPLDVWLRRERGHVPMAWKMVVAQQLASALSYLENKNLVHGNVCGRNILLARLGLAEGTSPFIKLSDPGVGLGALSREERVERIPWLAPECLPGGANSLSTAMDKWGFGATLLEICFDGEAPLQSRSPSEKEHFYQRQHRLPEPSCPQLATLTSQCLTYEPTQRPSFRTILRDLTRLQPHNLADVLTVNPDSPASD
# JAK2 kinase domain (JH1), sequence (O60674 849-1124): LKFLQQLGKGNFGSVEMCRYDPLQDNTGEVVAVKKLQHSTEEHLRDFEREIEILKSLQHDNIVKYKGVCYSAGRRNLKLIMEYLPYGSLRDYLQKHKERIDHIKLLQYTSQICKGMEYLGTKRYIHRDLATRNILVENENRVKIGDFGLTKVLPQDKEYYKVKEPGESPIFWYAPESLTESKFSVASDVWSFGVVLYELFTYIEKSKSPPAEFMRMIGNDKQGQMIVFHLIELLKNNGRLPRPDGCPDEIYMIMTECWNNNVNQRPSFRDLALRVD
# Tyk2/JAK2 (heterodimeric complex), sequence (P29597 whole entry, other chains not shown): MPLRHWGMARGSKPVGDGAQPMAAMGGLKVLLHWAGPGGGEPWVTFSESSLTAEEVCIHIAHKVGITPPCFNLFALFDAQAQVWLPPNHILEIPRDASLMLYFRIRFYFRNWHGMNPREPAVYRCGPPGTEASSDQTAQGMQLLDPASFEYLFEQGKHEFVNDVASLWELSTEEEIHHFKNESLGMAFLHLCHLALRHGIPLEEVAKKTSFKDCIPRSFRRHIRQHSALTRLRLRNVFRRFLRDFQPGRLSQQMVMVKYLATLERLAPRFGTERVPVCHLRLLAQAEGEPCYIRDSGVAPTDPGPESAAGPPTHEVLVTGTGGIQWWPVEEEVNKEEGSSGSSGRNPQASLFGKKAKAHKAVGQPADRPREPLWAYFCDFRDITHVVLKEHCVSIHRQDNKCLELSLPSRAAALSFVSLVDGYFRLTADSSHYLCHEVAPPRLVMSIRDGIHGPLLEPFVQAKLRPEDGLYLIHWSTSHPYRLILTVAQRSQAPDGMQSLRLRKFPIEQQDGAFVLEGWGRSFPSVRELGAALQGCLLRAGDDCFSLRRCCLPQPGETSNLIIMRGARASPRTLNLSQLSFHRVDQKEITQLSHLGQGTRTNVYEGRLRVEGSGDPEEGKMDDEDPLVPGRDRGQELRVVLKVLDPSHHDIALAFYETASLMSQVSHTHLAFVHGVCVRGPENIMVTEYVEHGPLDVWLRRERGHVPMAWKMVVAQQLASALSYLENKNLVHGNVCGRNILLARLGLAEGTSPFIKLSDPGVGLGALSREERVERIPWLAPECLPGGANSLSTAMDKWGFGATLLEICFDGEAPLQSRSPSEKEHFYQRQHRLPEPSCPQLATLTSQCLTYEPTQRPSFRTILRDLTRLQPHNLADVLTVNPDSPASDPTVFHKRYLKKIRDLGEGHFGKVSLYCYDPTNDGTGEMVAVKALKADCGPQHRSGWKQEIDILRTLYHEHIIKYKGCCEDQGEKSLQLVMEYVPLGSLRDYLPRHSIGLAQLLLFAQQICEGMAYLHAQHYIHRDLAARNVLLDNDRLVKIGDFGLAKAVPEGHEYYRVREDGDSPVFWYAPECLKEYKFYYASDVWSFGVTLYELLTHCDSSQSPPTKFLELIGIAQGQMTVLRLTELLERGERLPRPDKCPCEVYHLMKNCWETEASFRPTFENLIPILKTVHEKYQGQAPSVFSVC
# Tyk2 kinase domain (DH1), sequence (P29597 897-1176): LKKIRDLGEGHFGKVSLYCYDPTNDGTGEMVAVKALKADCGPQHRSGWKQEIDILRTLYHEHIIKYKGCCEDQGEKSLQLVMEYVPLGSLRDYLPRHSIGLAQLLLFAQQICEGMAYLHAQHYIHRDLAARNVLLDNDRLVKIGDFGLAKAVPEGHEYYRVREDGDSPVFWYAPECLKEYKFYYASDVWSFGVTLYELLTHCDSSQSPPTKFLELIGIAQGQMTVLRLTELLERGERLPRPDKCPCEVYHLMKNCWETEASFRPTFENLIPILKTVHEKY
Kd [1],"inhibition at 10 µM ([2]; compound at 10 μM, ATP 10 μM)","inhibition at 10 µM ([3]; compound at 10 μM, ATP 10 μM)",IC50 [4],IC50 [5],"inhibition at 10 µM ([2]; 10 μM compound, 10 μM ATP)","inhibition at 10 µM ([3]; 10 μM compound, 10 μM ATP)",Structure (SMILES),"Tyk2 JH1% Inhibition @ 10 μM ([2]; compound at 10 μM, ATP 10 μM)","JAK2 JH1% Inhibition @ 10 μM ([3]; compound at 10 μM, ATP 10 μM)"
< 0.2 nM,< 50%,< 50%,100 to 500 nM,> 50000 nM,–,–,"CNc1cc(Nc2cccnc2OC)nc2c(C(=O)NO)cnn12 [I-710, N-hydroxy-5-((2-methoxypyridin-3-yl)amino)-7-(methylamino)pyrazolo[1,5-a]pyrimidine-3-carboxamide]",–,–
< 0.2 nM,< 50%,< 50%,< 100 nM,> 50000 nM,–,–,CNc1cc(Nc2cc(Cl)cn(C3CCCOC3)c2=O)nc2c(C(=O)NC3CC3)cnn12 (centres unmarked) [I-711],–,–
< 0.2 nM,< 50%,< 50%,< 100 nM,> 12500 nM,–,–,CNc1cc(Nc2cc(Cl)cn(C3CCOCC3)c2=O)nc2c(C(=O)N[C@H]3CC[C@@H]3O)cnn12 [I-712],–,–
< 0.2 nM,< 50%,< 50%,< 100 nM,> 2500 nM,–,–,CNc1cc(Nc2cccn(-c3ncco3)c2=O)nc2c(C(=O)NC3CC3)cnn12 [I-715],–,–
< 0.2 nM,< 50%,< 50%,< 100 nM,> 2500 nM,–,–,CNc1cc(Nc2cccn(-c3ncco3)c2=O)nc2c(C(=O)N[C@H]3C[C@H]3F)cnn12 [I-716],–,–
< 0.2 nM,< 50%,< 50%,< 100 nM,> 12500 nM,–,–,CNc1cc(Nc2cccn(-c3cnc(C)o3)c2=O)nc2c(C(=O)N[C@H]3C[C@H]3F)cnn12 [I-718],–,–
< 0.2 nM,–,–,< 100 nM,> 12500 nM,–,–,"CNc1cc(Nc2cccn([C@H]3CC[C@](C)(OC)CC3)c2=O)nc2c(C(=O)N[C@@H]3CC[C@@H]3O)cnn12 [I-722, N-((1S,2R)-2-hydroxycyclobutyl)-5-((1-((1R,4S)-4-methoxy-4-methylcyclohexyl)-2-oxo-1,2-dihydropyridin-3-yl)amino)-7-(methylamino)pyrazolo[1,5-a]pyrimidine-3-carboxamide]",A (percent inhibition at 10 μM lower than 50),A (percent inhibition at 10 μM lower than 50)
< 0.2 nM,< 50%,< 50%,< 100 nM,> 2500 nM,–,–,CNc1cc(Nc2cccn([C@H]3CCCOC3)c2=O)nc2c(C(=O)N[C@@H]3CC[C@H]3O)cnn12 [I-725],–,–
< 0.2 nM,< 50%,< 50%,< 100 nM,> 2500 nM,–,–,CNc1cc(Nc2cc(Cl)cn(C3CCCN(C)C3)c2=O)nc2c(C(=O)NC3CC3)cnn12 (centres unmarked) [I-740],–,–
< 0.2 nM,< 50%,< 50%,100 to 500 nM,> 12500 nM,–,–,CNc1cc(Nc2cccn(-c3cccnc3)c2=O)nc2c(C(=O)NC3CC3)cnn12 [I-747],–,–
< 0.2 nM,< 50%,< 50%,< 100 nM,> 2500 nM,–,–,CNc1cc(Nc2cccn(-c3cccnc3)c2=O)nc2c(C(=O)N[C@@H]3C[C@@H]3F)cnn12 [I-748],–,–
< 0.2 nM,< 50%,< 50%,< 100 nM,> 2500 nM,–,–,CNc1cc(Nc2cccc3ocnc23)nc2c(C(=O)NCC(C)(C)CO)cnn12 [I-750],–,–
< 0.2 nM,< 50%,< 50%,< 100 nM,> 12500 nM,–,–,CNc1cc(Nc2cccn([C@@H]3CCCOC3)c2=O)nc2c(C(=O)N[C@H]3CC[C@H]3O)cnn12 [I-751],–,–
< 0.2 nM,< 50%,< 50%,< 100 nM,> 50000 nM,–,–,CNc1cc(Nc2cc(Cl)cn(C3CCCN(C)C3)c2=O)nc2c(C(=O)N[C@@H]3C[C@@H]3F)cnn12 (some centres unmarked) [I-759],–,–
< 0.2 nM,< 50%,< 50%,< 100 nM,> 2500 nM,–,–,CNc1cc(Nc2cccn(-c3cnco3)c2=O)nc2c(C(=O)N[C@@H]3C[C@@H]3F)cnn12 [I-762],–,–
< 0.2 nM,–,–,< 100 nM,> 2500 nM,–,–,CNc1cc(Nc2cccc3ocnc23)nc2c(C(=O)N[C@@H]3CC[C@@H]3O)cnn12 [I-770],A (percent inhibition at 10 μM lower than 50),A (percent inhibition at 10 μM lower than 50)
< 0.2 nM,< 50%,< 50%,< 100 nM,> 300 nM,–,–,CNc1cc(Nc2cc(Cl)cn([C@H]3CCCOC3)c2=O)nc2c(C(=O)N[C@@H]3C[C@@H]3F)cnn12 [I-772],–,–

Kd [1],"inhibition at 10 µM ([2]; compound at 10 μM, ATP 10 μM)","inhibition at 10 µM ([3]; compound at 10 μM, ATP 10 μM)",IC50 [4],IC50 [5],"inhibition at 10 µM ([2]; 10 μM compound, 10 μM ATP)","inhibition at 10 µM ([3]; 10 μM compound, 10 μM ATP)",Structure (SMILES),"Tyk2 JH1% Inhibition @ 10 μM ([2]; compound at 10 μM, ATP 10 μM)","JAK2 JH1% Inhibition @ 10 μM ([3]; compound at 10 μM, ATP 10 μM)"
< 0.2 nM,< 50%,< 50%,< 100 nM,> 12500 nM,–,–,CNc1cc(Nc2cc(Cl)cn([C@@H]3CCCOC3)c2=O)nc2c(C(=O)N[C@@H]3C[C@@H]3F)cnn12 [I-773],–,–
< 0.2 nM,< 50%,< 50%,< 100 nM,> 50000 nM,–,–,CNc1cc(Nc2cc(Cl)cn([C@H]3CCCOC3)c2=O)nc2c(C(=O)NC3CC3)cnn12 [I-782],–,–
< 0.2 nM,< 50%,< 50%,< 100 nM,> 50000 nM,–,–,CNc1cc(Nc2cc(Cl)cn([C@@H]3CCCOC3)c2=O)nc2c(C(=O)NC3CC3)cnn12 [I-783],–,–
< 0.2 nM,< 50%,< 50%,< 100 nM,> 12500 nM,–,–,CNc1cc(Nc2cc(Cl)cn(C3CCN(C)CC3)c2=O)nc2c(C(=O)N[C@@H]3C[C@@H]3F)cnn12 [I-789],–,–
< 0.2 nM,< 50%,< 50%,< 100 nM,> 12500 nM,–,–,CNc1cc(Nc2cccn(-c3ocnc3C)c2=O)nc2c(C(=O)N[C@@H]3C[C@@H]3F)cnn12 [I-790],–,–
< 0.2 nM,< 50%,< 50%,< 100 nM,> 12500 nM,–,–,CNc1cc(Nc2cccn(-c3ccccn3)c2=O)nc2c(C(=O)N[C@H]3CC[C@H]3O)cnn12 [I-805],–,–
< 0.2 nM,–,–,< 100 nM,> 50000 nM,< 50%,< 50%,CNc1cc(Nc2cccn([C@H]3[C@@H]4COC[C@@H]43)c2=O)nc2c(C(=O)N[C@@H]3C[C@@H]3F)cnn12 [I-811],–,–
< 0.2 nM,–,–,< 100 nM,> 50000 nM,< 50%,< 50%,CNc1cc(Nc2cc(Cl)cn([C@@H]3CCCN(C)C3)c2=O)nc2c(C(=O)NC3CC3)cnn12 [I-819],–,–
< 0.2 nM,–,–,< 100 nM,> 12500 nM,< 50%,< 50%,CNc1cc(Nc2cc(Cl)cn([C@H]3CCCN(C)C3)c2=O)nc2c(C(=O)NC3CC3)cnn12 [I-820],–,–
< 0.2 nM,–,–,< 100 nM,> 50000 nM,< 50%,< 50%,CNc1cc(Nc2cc(Cl)cn(C3CCOCC3)c2=O)nc2c(C(=O)N[C@@H]3CC[C@H]3O)cnn12 [I-825],–,–
< 0.2 nM,–,–,100 to 500 nM,> 50000 nM,< 50%,< 50%,CNc1cc(Nc2cccc(N3CCO[C@]4(CCOC4)C3)n2)nc2c(C(=O)NC3CC3)cnn12 [I-827],–,–
< 0.2 nM,–,–,< 100 nM,> 50000 nM,< 50%,< 50%,CNc1cc(Nc2cccn([C@H]3CC[C@H](OC)CC3)c2=O)nc2c(C(=O)NC[C@H](C)CO)cnn12 [I-829],–,–
< 0.2 nM,–,–,< 100 nM,> 50000 nM,< 50%,< 50%,CNc1cc(Nc2cccn([C@@H]3CCC[C@H](OC)C3)c2=O)nc2c(C(=O)N[C@@H]3C[C@@H]3F)cnn12 [I-840],–,–
< 0.2 nM,–,–,< 100 nM,> 50000 nM,< 50%,< 50%,"CNc1cc(-c2cn(C(C)C)c3ncccc23)nc2c(C(=O)N[C@@H]3COC[C@@H]3O)cnn12 [I-842, N-((3R,4R)-4-hydroxytetrahydrofuran-3-yl)-5-(1-isopropyl-1H-pyrrolo[2,3-b]pyridin-3-yl)-7-(methylamino)pyrazolo[1,5-a]pyrimidine-3-carboxamide]",–,–
< 0.2 nM,–,–,100 to 500 nM,> 50000 nM,< 50%,< 50%,CNc1cc(Nc2cccn(C3CCN(CCF)CC3)c2=O)nc2c(C(=O)NCC(C)(C)CO)cnn12 [I-847],–,–
< 0.2 nM,–,–,100 to 500 nM,> 50000 nM,< 50%,< 50%,CNc1cc(Nc2cccn(C3CCCN(CCF)C3)c2=O)nc2c(C(=O)N[C@@H]3C[C@@H]3F)cnn12 (some centres unmarked) [I-849],–,–
< 0.2 nM,–,–,< 100 nM,> 50000 nM,< 50%,< 50%,CNc1cc(Nc2cc(Cl)cn([C@H]3CCCN(C)C3)c2=O)nc2c(C(=O)N[C@@H]3C[C@@H]3F)cnn12 [I-854],–,–
